We go through 21 compounds from patent publication US20140120087A1, “TRIAZOLOPYRIDINES” (BAYER INTELLECTUAL PROPERTY GMBH, priority 2011, published 2014).

Test [1] addresses T1, Mps-1 kinase (Homo sapiens, UniProt P33981).
T1 sequence (P33981 1-857): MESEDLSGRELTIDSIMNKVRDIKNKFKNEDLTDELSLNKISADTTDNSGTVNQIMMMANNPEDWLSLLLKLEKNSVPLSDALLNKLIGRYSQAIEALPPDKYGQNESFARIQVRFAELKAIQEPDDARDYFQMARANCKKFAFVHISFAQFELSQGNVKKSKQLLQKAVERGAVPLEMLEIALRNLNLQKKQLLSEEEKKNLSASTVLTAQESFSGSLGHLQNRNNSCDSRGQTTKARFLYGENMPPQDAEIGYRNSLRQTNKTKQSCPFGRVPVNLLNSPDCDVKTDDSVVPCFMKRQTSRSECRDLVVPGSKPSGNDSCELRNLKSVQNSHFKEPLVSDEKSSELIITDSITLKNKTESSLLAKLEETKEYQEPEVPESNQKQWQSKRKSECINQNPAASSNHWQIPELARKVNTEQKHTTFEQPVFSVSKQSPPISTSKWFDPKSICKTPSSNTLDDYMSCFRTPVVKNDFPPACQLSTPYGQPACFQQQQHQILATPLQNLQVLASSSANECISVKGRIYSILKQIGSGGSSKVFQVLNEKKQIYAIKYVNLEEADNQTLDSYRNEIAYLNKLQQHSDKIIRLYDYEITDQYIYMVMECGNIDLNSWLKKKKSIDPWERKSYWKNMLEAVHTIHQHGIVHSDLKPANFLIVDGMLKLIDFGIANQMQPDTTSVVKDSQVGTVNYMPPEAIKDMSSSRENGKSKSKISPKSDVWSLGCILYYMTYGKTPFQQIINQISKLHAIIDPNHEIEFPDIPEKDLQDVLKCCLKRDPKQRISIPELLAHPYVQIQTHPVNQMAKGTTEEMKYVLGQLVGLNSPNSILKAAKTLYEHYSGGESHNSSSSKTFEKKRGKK
Briefly: Mps-1 kinase assay with 2 mM ATP (TR-FRET). For orientation: TR-FRET usually uses a lanthanide donor and a delayed reading to cut background.

In test [2] the target is T1, Mps-1 kinase. Nature of the test: Mps-1 kinase assay with 10 μM ATP (TR-FRET).

Usually IC50 stands for the concentration that gives 50% inhibition. Low readings indicate higher potency, high ones lower potency. With `Cc1cc(NS(C)(=O)=O)ccc1Nc1nc2ccc(-c3ccc(NC(=O)Cc4ccc(F)cc4)cc3)cn2n1` [Example 12.34, 2-(4-fluorophenyl)-N-{4-[2-({2-methyl-4-[(methyl-sulfonyl)amino]phenyl}-amino)[1,2,4]triazolo[1,5-a]pyridin-6-yl]phenyl}-acetamide], the IC50 is 6.6 nM against Mps-1 kinase [1] and ≤ 1 nM on Mps-1 kinase [2].

Turning to `CS(=O)(=O)c1ccc(Nc2nc3ccc(-c4ccc(NC(=O)Cc5ccc(F)cc5)cc4)cn3n2)c(OC2CC2)c1` [Example 01.37, N-[4-(2-{[2-(cyclopropyloxy)-4-(methylsulfonyl)phenyl]amino}[1,2,4]-triazolo[1,5-α]pyridin-6-yl)phenyl]-2-(4-fluorophenyl)acetamide], the values for the IC50 on Mps-1 kinase [1] and against Mps-1 kinase [2] were 1.6 nM and ≤ 1 nM, respectively.

For the compound `O=C(NCCF)c1ccc(Nc2nc3ccc(-c4ccc(C(=O)NCc5ccc(F)cc5)cc4)cn3n2)c(OCC(F)(F)F)c1` [Example 12.59, 4-[(6-{4-[(4-fluorobenzyl)-carbamoyl]phenyl}[1,2,4]triazolo [1,5-a]pyridin-2-yl)-amino]-N-(2-fluoroethyl)-3-(2,2,2-trifluoroethoxy)-benzamide], the half-inhibitory concentration (IC50) against Mps-1 kinase [1] and on Mps-1 kinase [2] was ≤ 1 nM each time.

Take `NC(=O)c1ccc(Nc2nc3ccc(-c4ccc(C(=O)NCc5ccc(F)cc5)cc4)cn3n2)c(OC(F)(F)F)c1` [Example 12.60, 4-[(6-{4-[(4-fluorobenzyl)-carbamoyl]phenyl}[1,2,4]triazolo [1,5-K]pyridin-2-yl)-amino]-3-(trifluoro-methoxy)benzamide]: the results for the IC50 against Mps-1 kinase [1] and at Mps-1 kinase [2] were 5 nM and ≤ 1 nM, respectively.

As to `COc1ccc(Nc2nc3ccc(-c4ccc(C(=O)NCc5ccc(F)cc5)cc4)cn3n2)c(C)c1` [Example 12.71, N-(4-fluorobenzyl)-4-{2-[(4-methoxy-2-methylphenyl)-amino][1,2,4]triazolo[1,5-a]pyridin-6-yl}benzamide], the half-inhibitory concentration (IC50) against Mps-1 kinase [1] is 8.8 nM; on Mps-1 kinase [2] it was ≤ 1 nM.

For `Cc1cc(NS(C)(=O)=O)ccc1Nc1nc2ccc(-c3ccc(C(=O)NCc4ccc(F)cc4)cc3)cn2n1` [Example 12.70, N-(4-fluorobenzyl)-4-[2-({2-methyl-4-[(methylsulfonyl)-amino]phenyl}amino)[1,2,4]triazolo [1,5-a]pyridin-6-yl]-benzamide], the IC50 against Mps-1 kinase [1] was 9.5 nM; against Mps-1 kinase [2], ≤ 1 nM.

Regarding `Cc1cc([S@@+](C)[O-])ccc1Nc1nc2ccc(-c3ccc(NC(=O)Cc4ccc(F)cc4)cc3)cn2n1` (stereo in doubt) [Example 12.33, 2-(4-fluorophenyl)-N-[4-(2-{[2-methyl-4-(methyl-sulfinyl)phenyl]amino}-[1,2,4]triazolo[1,5-a]pyridin-6-yl)phenyl]acetamide], the IC50 is 1.4 nM at Mps-1 kinase [1] and ≤ 1 nM at Mps-1 kinase [2].

`COc1cc(S(C)(=O)=O)ccc1Nc1nc2ccc(-c3ccc(C(=O)NCc4ccc(F)cc4F)cc3)cn2n1` [Example 11.01, N-(2,4-difluorobenzyl)-4-(2-{[2-methoxy-4-(methylsulfonyl)phenyl]amino}-[1,2,4]triazolo[1,5-α]pyridin-6-yl)benzamide]: the values for the IC50 against Mps-1 kinase [1] and against Mps-1 kinase [2] were 11 nM and ≤ 1 nM, respectively.

For `Cc1cc(C(=O)NCCF)ccc1Nc1nc2ccc(-c3ccc(C(=O)NCc4ccc(F)cc4)cc3)cn2n1` [Example 12.67, 4-[(6-{4-[(4-fluorobenzyl)-carbamoyl]phenyl}[1,2,4]triazolo [1,5-a]pyridin-2-yl)-amino]-N-(2-fluoroethyl)-3-methylbenzamide], the IC50 was 5 nM at Mps-1 kinase [1] and ≤ 1 nM against Mps-1 kinase [2].

For `CN(C)CCNC(=O)c1ccc(Nc2nc3ccc(-c4ccc(NC(=O)Cc5ccc(F)cc5)cc4)cn3n2)c(OCC(F)(F)F)c1` [Example 12.23, N-[2-(dimethylamino)ethyl]-4-{[6-(4-{[(4-fluorophenyl)-acetyl]amino}phenyl)[1,2,4]triazolo[1,5-a]pyridin-2-yl]amino}-3-(2,2,2-trifluoro-ethoxy)benzamide], the IC50 against Mps-1 kinase [1] and against Mps-1 kinase [2] was ≤ 1 nM in each case.

For the compound `CS(=O)(=O)c1ccc(Nc2nc3ccc(-c4ccc(C(=O)NCc5ccc(F)cc5)cc4)cn3n2)c(OC(F)F)c1` [Example 02.28, 4-(2-{[2-(difluoromethoxy)-4-(methylsulfonyl)phenyl]amino}[1,2,4]triazolo-[1,5-α]pyridin-6-yl)-N-(4-fluorobenzyl)benzamide], the results for the IC50 against Mps-1 kinase [1] and on Mps-1 kinase [2] were 3.5 nM and ≤ 1 nM, respectively.

For `CS(=O)(=O)c1ccc(Nc2nc3ccc(-c4ccc(NC(=O)Cc5ccc(F)cc5)cc4)cn3n2)c(OC(F)F)c1` [Example 01.35, N-[4-(2-{[2-(difluoromethoxy)-4-(methylsulfonyl)phenyl]amino}[1,2,4]-triazolo[1,5-α]pyridin-6-yl)phenyl]-2-(4-fluorophenyl)acetamide], the figures for the IC50 at Mps-1 kinase [1] and at Mps-1 kinase [2] were 1.2 nM and ≤ 1 nM, respectively.

Regarding `COc1cc(S(C)(=O)=O)c(F)cc1Nc1nc2ccc(-c3ccc(NC(=O)Cc4ccc(F)cc4)cc3)cn2n1` [Example 12.12, N-[4-(2-{[5-fluoro-2-methoxy-4-(methylsulfonyl)-phenyl]amino}[1,2,4]-triazolo[1,5-a]pyridin-6-yl)phenyl]-2-(4-fluoro-phenyl)acetamide], the IC50 on Mps-1 kinase [1] was 13 nM; at Mps-1 kinase [2], ≤ 1 nM.

On to `Cc1cc(C(=O)NCCF)ccc1Nc1nc2ccc(-c3ccc(NC(=O)Cc4ccc(F)cc4)cc3)cn2n1` [Example 12.30, N-(2-fluoroethyl)-4-{[6-(4-{[(4-fluorophenyl)acetyl]-amino}phenyl)[1,2,4]-triazolo[1,5-a]pyridin-2-yl]amino}-3-methyl-benzamide], for which the results for the IC50 against Mps-1 kinase [1] and against Mps-1 kinase [2] were 4.3 nM and ≤ 1 nM, respectively.

Take `COc1cc(C(C)(C)O)ccc1Nc1nc2ccc(-c3ccc(C(=O)NCc4ccc(F)cc4)cc3)cn2n1` [Example 12.54, N-(4-fluorobenzyl)-4-(2-{[4-(2-hydroxypropan-2-yl)-2-methoxyphenyl]amino}-[1,2,4]triazolo[1,5-a]pyridin-6-yl)benzamide]: the IC50 against Mps-1 kinase [1] is 1.1 nM; against Mps-1 kinase [2] it was ≤ 1 nM.

For `CN(C)CCNC(=O)c1ccc(Nc2nc3ccc(-c4ccc(C(=O)NCc5ccc(F)cc5)cc4)cn3n2)c(OCC(F)(F)F)c1` [Example 12.58, N-[2-(dimethylamino)ethyl]-4-[(6-{4-[(4-fluorobenzyl)-carbamoyl]phenyl}[1,2,4]triazolo [1,5-a]pyridin-2-yl)-amino]-3-(2,2,2-trifluoro-ethoxy)benzamide], the IC50 against Mps-1 kinase [1] and at Mps-1 kinase [2] was ≤ 1 nM in each case.

On to `COc1cc(C(=O)NCC(F)F)ccc1Nc1nc2ccc(-c3ccc(C(=O)NCc4ccc(F)cc4)cc3)cn2n1` [Example 12.47, N-(2,2-difluoroethyl)-4-[(6-{4-[(4-fluorobenzyl)-carbamoyl]phenyl}[1,2,4]triazolo [1,5-a]pyridin-2-yl)amino]-3-methoxy-benzamide], for which the figures for the IC50 against Mps-1 kinase [1] and on Mps-1 kinase [2] were 2.4 nM and ≤ 1 nM, respectively.

For `COc1cc(C(C)(C)O)ccc1Nc1nc2ccc(-c3ccc(C(=O)NCc4ccc(F)cc4)c(OC)c3)cn2n1` [Example 12.81, N-(4-fluorobenzyl)-4-(2-{[4-(2-hydroxypropan-2-yl)-2-methoxyphenyl]amino}-[1,2,4]triazolo[1,5-a]pyridin-6-yl)-2-methoxybenzamide], the half-maximal inhibitory concentration (IC50) against Mps-1 kinase [1] is 7.3 nM; against Mps-1 kinase [2], ≤ 1 nM.

Consider `CC(C)S(=O)(=O)c1ccc(Nc2nc3ccc(-c4ccc(NC(=O)Cc5ccc(F)cc5)cc4)cn3n2)c(OC(F)F)c1` [Example 12.26, N-[4-(2-{[2-(difluoro-methoxy)-4-(propan-2-ylsulfonyl)phenyl]amino}-[1,2,4]triazolo[1,5-a]pyridin-6-yl)phenyl]-2-(4-fluorophenyl)acetamide], for which the IC50 is 1.2 nM against Mps-1 kinase [1] and ≤ 1 nM against Mps-1 kinase [2].

Consider `O=C(Cc1ccc(F)cc1)Nc1ccc(-c2ccc3nc(Nc4ccc(F)cc4OC(F)F)nn3c2)cc1` [Example 12.27, N-[4-(2-{[2-(difluoro-methoxy)-4-fluorophenyl]-amino}[1,2,4]triazolo[1,5-a]pyridin-6-yl)phenyl]-2-(4-fluorophenyl)acetamide], for which the IC50 against Mps-1 kinase [1] was 9 nM; against Mps-1 kinase [2], ≤ 1 nM.

Regarding `COCCNC(=O)c1ccc(Nc2nc3ccc(-c4ccc(NC(=O)Cc5ccc(F)cc5)cc4)cn3n2)c(OC)c1` [Example 12.01, 4-{[6-(4-{[(4-fluorophenyl)-acetyl]amino}phenyl)[1,2,4]triazolo[1,5-a]pyridin-2-yl]amino}-3-methoxy-N-(2-methoxyethyl)benzamide], the IC50 at Mps-1 kinase [1] and against Mps-1 kinase [2] was ≤ 1 nM each time.
